Results from the supplement of paper PMC13207355.

Experiments:
Settings in all cases: exposure time: 72 h
E13 [1] = patient-derived glioblastoma stem cells of classical subtype; assay: surviving fraction (nuclei count normalised to DMSO); higher = more cells surviving (less toxic)
E28 [2] = patient-derived glioblastoma stem cells of classical subtype; assay: as above
E31 [3] = patient-derived glioblastoma stem cells of proneural subtype; assay: as above
E34 [4] = patient-derived glioblastoma stem cells of proneural subtype; assay: as above
E21 [5] = patient-derived glioblastoma stem cells of mesenchymal subtype; assay: as above
E57 [6] = patient-derived glioblastoma stem cells of mesenchymal subtype; assay: as above
FT3469 [7] = normal neural stem cell line; assay: as above
E13 [8] = assay: phenotypic distance (Euclidean, principal components) from DMSO controls (arbitrary units); higher = stronger morphological change
E28 [9] = assay: as above
E31 [10] = assay: as above
E34 [11] = assay: as above
E21 [12] = assay: as above
E57 [13] = assay: as above
FT3469 [14] = assay: as above
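For phenotypic distance (Euclidean, principal components) from DMSO controls in this document: cell Painting imaging in 384-well plates, CellProfiler features reduced to at least 20 principal components, Euclidean distance versus same-plate DMSO vehicle wells (0.1% v/v), median over six images per well.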
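For surviving fraction (nuclei count normalised to DMSO) in this document: nuclei counted by high-content imaging of Hoechst-stained cells in laminin-coated 384-well plates, relative to 0.1% DMSO vehicle wells, with staurosporine as cell-death control.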

COc1cc2c(c(OC)c1OC)-c1ccc(OC)c(=O)cc1[C@@H](NC(C)=O)CC2 [Colchicine]
Settings	phenotypic distance	surviving fraction
E13 [1], 4.1 nM	–	0.247
E13 [1], 12.3 nM	–	0.187
E13 [1], 37 nM	–	0.165
E13 [1], 111.1 nM	–	0.14
E13 [1], 333.3 nM	–	0.151
E13 [1], 1000 nM	–	0.152
E13 [1], 3000 nM	–	0.178
E13 [8], 4.1 nM	5.49	–
E13 [8], 12.3 nM	5.12	–
E13 [8], 37 nM	6.59	–
E13 [8], 111.1 nM	7.17	–
E13 [8], 333.3 nM	8.24	–
E13 [8], 1000 nM	7.42	–
E13 [8], 3000 nM	7.88	–
E21 [5], 4.1 nM	–	0.171
E21 [5], 12.3 nM	–	0.125
E21 [5], 37 nM	–	0.133
E21 [5], 111.1 nM	–	0.137
E21 [5], 333.3 nM	–	0.136
E21 [5], 1000 nM	–	0.135
E21 [5], 3000 nM	–	0.139
E21 [12], 4.1 nM	5.8	–
E21 [12], 12.3 nM	5.88	–
E21 [12], 37 nM	5.7	–
E21 [12], 111.1 nM	5.45	–
E21 [12], 333.3 nM	5.2	–
E21 [12], 1000 nM	5.35	–
E21 [12], 3000 nM	4.96	–
E28 [2], 4.1 nM	–	0.546
E28 [2], 12.3 nM	–	0.244
E28 [2], 37 nM	–	0.335
E28 [2], 111.1 nM	–	0.295
E28 [2], 333.3 nM	–	0.291
E28 [2], 1000 nM	–	0.211
E28 [2], 3000 nM	–	0.207
E28 [9], 4.1 nM	2.89	–
E28 [9], 12.3 nM	3.81	–
E28 [9], 37 nM	4.44	–
E28 [9], 111.1 nM	4.55	–
E28 [9], 333.3 nM	5.48	–
E28 [9], 1000 nM	4.51	–
E28 [9], 3000 nM	5.17	–
E31 [3], 4.1 nM	–	0.131
E31 [3], 12.3 nM	–	0.0944
E31 [3], 37 nM	–	0.0551
E31 [3], 111.1 nM	–	0.0362
E31 [3], 333.3 nM	–	0.0614
E31 [3], 1000 nM	–	0.0519
E31 [3], 3000 nM	–	0.0425
E31 [10], 4.1 nM	4.44	–
E31 [10], 12.3 nM	6.48	–
E31 [10], 37 nM	9.95	–
E31 [10], 111.1 nM	12.2	–
E31 [10], 333.3 nM	11.7	–
E31 [10], 1000 nM	10.4	–
E31 [10], 3000 nM	12.5	–
E34 [4], 4.1 nM	–	0.406
E34 [4], 12.3 nM	–	0.368
E34 [4], 37 nM	–	0.389
E34 [4], 111.1 nM	–	0.284
E34 [4], 333.3 nM	–	0.318
E34 [4], 1000 nM	–	0.245
E34 [4], 3000 nM	–	0.267
E34 [11], 4.1 nM	3.32	–
E34 [11], 12.3 nM	7.33	–
E34 [11], 37 nM	9.15	–
E34 [11], 111.1 nM	9.46	–
E34 [11], 333.3 nM	7.78	–
E34 [11], 1000 nM	7.61	–
E34 [11], 3000 nM	10.5	–
E57 [6], 4.1 nM	–	0.21
E57 [6], 12.3 nM	–	0.0932
E57 [6], 37 nM	–	0.105
E57 [6], 111.1 nM	–	0.119
E57 [6], 333.3 nM	–	0.0902
E57 [6], 1000 nM	–	0.0976
E57 [6], 3000 nM	–	0.0829
E57 [13], 4.1 nM	4.26	–
E57 [13], 12.3 nM	4.49	–
E57 [13], 37 nM	4.46	–
E57 [13], 111.1 nM	4.55	–
E57 [13], 333.3 nM	4.46	–
E57 [13], 1000 nM	4.61	–
E57 [13], 3000 nM	5.19	–
FT3469 [7], 4.1 nM	–	0.487
FT3469 [7], 12.3 nM	–	0.468
FT3469 [7], 37 nM	–	0.367
FT3469 [7], 111.1 nM	–	0.301
FT3469 [7], 333.3 nM	–	0.263
FT3469 [7], 1000 nM	–	0.335
FT3469 [7], 3000 nM	–	0.229
FT3469 [14], 4.1 nM	3.51	–
FT3469 [14], 12.3 nM	4.18	–
FT3469 [14], 37 nM	5.37	–
FT3469 [14], 111.1 nM	5.29	–
FT3469 [14], 333.3 nM	4.34	–
FT3469 [14], 1000 nM	5.12	–
FT3469 [14], 3000 nM	4.51	–
